Measured values as given in patent publication US20080306166A1, “Compositions and Methods For Treatment of Disorders of Protein Aggregation” (priority 2004, published 2008).
Entries after “also recorded” stand apart in the source; their conditions may differ. Marks after values point to notes of the source that are not given here.

How the values were obtained:
TgCRND8 mice [1] = experiment: Cerebral amyloid plaque burden (anti-Aβ immunostaining, image analysis); type: in vivo, mouse; conditions: for Mean Plaque Size / Total Plaque Area / Total Plaque Count: oral, 28 days from 5 months of age, 6 months of age
Procedure: (§1) Mice. […] This initial dosage was chosen based upon the dosage of myo-cyclohexanehexyl (6-18 grams/day/adult or 86-257 mg/Kg/day) that is typically administered to human patients for various psychiatric disorders. […] A cohort of animals (n=10 mice per treatment arm) entered the study at five months of age, and outcomes were then analyzed after one month of treatment. The body weight, coat characteristics and in cage behaviour were monitored. Mannitol was used as a negative control for potential alterations in caloric intake. All experiments were performed according to the Canadian Council on Animal Care guidelines. Behavioural tests: Morris Water Maze testing was performed as previously described. After non-spatial pre-training, mice underwent place discrimination training for 5 days with 4-trials per day, followed by a cued visible platform to rule out general motivational, learning deficits and motor problems, and a probe trial to evaluate memory. […] Open field test for motor activity was preformed as described previously. Duration of walking, pausing and grooming were analyzed as indices of spontaneous locomotor activity. Sensorimotor function was examined with an Economex™ accelerating rotarod (Columbus Instruments, Columbus, Ohio), as described elsewhere. The rod was set to accelerate at a rate of 0.2 r.p.m./s, from an initial, constant speed of 5 r.p.m. Latency to fall was recorded in four daily trials, conducted at 30 min intervals. All mice were trained for seven days before testing. The test day performance score for each animal was obtained by summing its latency to fall over the four trials. Cerebral amyloid burden. Brains were removed and one hemisphere was fixed in 4% paraformaldehyde and embedded in paraffin wax in the mid sagittal plane. To generate sets of systematic uniform random sections, 5 μm serial sections were collected across the entire hemisphere. Sets of sections at 50 μm intervals were used for analyses (10-14 sections/set). Plaques were identified after antigen retrieval with formic acid, and incubation with primary anti-AD antibody (Dako M-0872), followed by secondary antibody (Dako StreptABCcomplex/horseradish kit). End products were visualized with DAB and were counter-stained with luxol fast blue. Amyloid plaque burden was assessed with Leco IA-3001 image analysis software interfaced with Leica microscope and Hitachi KP-M1U CCD video camera. Openlab imaging software (Improvision, Lexington, Mass.) was then used to convert micrographs to binary images for plaque number and plaque area determinations. Vascular amyloid burden was defined as amyloid originating from or surrounding blood vessels and was analysed similarly. Plasma and Cerebral Aβ Content. Hemi-brain samples were homogenized in a buffered sucrose solution, followed by either 0.4% diethylamine/100 mM NaCl for soluble Aβ levels or cold formic acid for the isolation of total Aβ. After neutralization, the samples were diluted and analyzed for Aβ40 and Aβ42 using commercially available kits (BIOSOURCE International). Each hemisphere was analyzed intriplicate and the mean values ±SEM reported. Western blot analyses were performed on all fractions using urea gels for Aβ species analyses. Aβ was detected using 6E10 (BIOSOURCE International) and Enhanced Chemiluminenscence (Amersham). Gliosis Quantitation. Five randomly selected, evenly spaced, sagittal sections were collected from paraformaldehyde-fixed and frozen hemispheres of treated and control mice. Sections were immunolabelled for astrocytes with anti-rat GFAP IgG2a, (Dako; diluted 1:50) and for microglia with anti-rat CD68 IgG2b (Dako; 1:50).

Aβ42 = biological target: T1, Aβ42 (Homo sapiens, UniProt P05067); experiment: Plasma Aβ42 levels; type: in vivo, mouse; conditions: TgCRND8 mice, 28 days of therapy at five months of age
T1 construct: analyzed for Aβ40 and Aβ42 using commercially available kits; from tissue; host or cells: TgCRND8 transgenic mice: hemi-brain (A3) and plasma (A5)
Procedure: (§2) Mice. […] This initial dosage was chosen based upon the dosage of myo-cyclohexanehexyl (6-18 grams/day/adult or 86-257 mg/Kg/day) that is typically administered to human patients for various psychiatric disorders. […] A cohort of animals (n=10 mice per treatment arm) entered the study at five months of age, and outcomes were then analyzed after one month of treatment. The body weight, coat characteristics and in cage behaviour were monitored. Mannitol was used as a negative control for potential alterations in caloric intake. All experiments were performed according to the Canadian Council on Animal Care guidelines. Behavioural tests: Morris Water Maze testing was performed as previously described. […] Duration of walking, pausing and grooming were analyzed as indices of spontaneous locomotor activity. […] Latency to fall was recorded in four daily trials, conducted at 30 min intervals. […] Amyloid plaque burden was assessed with Leco IA-3001 image analysis software interfaced with Leica microscope and Hitachi KP-M1U CCD video camera. […] Vascular amyloid burden was defined as amyloid originating from or surrounding blood vessels and was analysed similarly. […] After neutralization, the samples were diluted and analyzed for Aβ40 and Aβ42 using commercially available kits (BIOSOURCE International). Each hemisphere was analyzed intriplicate and the mean values ±SEM reported. […] Gliosis Quantitation. […]

TgCRND8 mice [2] = experiment: Morris Water Maze spatial reference memory test in TgCRND8 mice; type: in vivo, mouse; conditions: for spatial learning performance compared to non-Tg littermates / spatial learning performance compared to untreated TgCRND8 littermates: six month old TgCRND8 mice, 28 days treatment from 5 months
Procedure: as §1, with “Sections were immunolabelled for astrocytes with anti-rat GFAP IgG2a, (Dako; diluted 1:50) and for microglia with anti-rat CD68 IgG2b (Dako; 1:50).” left out

[3] = Pilot in vivo studies with myo-cyclohexanehexyl; conditions: data not shown
Text: The TgCRND8 mice and non-transgenic littermates were assigned to sex- and age-matched cohorts that were then used to test the effectiveness of the cyclohexanehexyl stereoisomers as a therapeutic (with treatment delayed until five months of age and continued for one month until six months of age). […] The endpoints were cognitive function, brain Aβ levels, and neuropathology. […] Over the course of these experiments, observers were unaware of genotype or treatment group.

[4] = 6-18 grams/day/adult or 86-257 mg/Kg/day; cited from earlier work
Aβ = biological target: T2, Aβ (Homo sapiens, UniProt P05067); conditions: cited from earlier work
T2 construct: Inositol stereoisomers stabilize an oligomeric aggregate of Alzheimer amyloid beta peptide

TgCRND8 mice [5] = conditions: mouse, in vivo
Procedure: as §2

Aβ oligomers [6] = experiment: IP/Western blot of Aβ oligomers in 7PA2 conditioned medium; type: cell-based, human
Procedure: (§3) Preparation of conditioned media: CHO— or 7PA2 cells were grown to ˜90% confluency. The cells were washed 1× in serum-free DMEM, then incubated overnight (˜15 hrs) in 4 ml/10 cm dish in serum-free DMEM, pen/strep, 1-glutamine with/without AZD-103. The following day, the conditioned media (CM) was collected, spun at 1000×g and treated with complete protease inhibitors (in mg/ml 1 leupeptin, 1 pepstatin, 0.1 aprotinin, 40 EDTA, and 2 mM 1/10 phenantroline) for biochemistry experiments or cell culture compatible protease inhibitors (Sigma P1860 1:1000) for electrophysiology experiments. The CM was stored at −80° C. until sufficient volumes were collected to complete a “batch”—typically ˜300 ml. […] The resulting concentrate was pooled, aliquoted in 1 ml fractions, and stored at −80° C. […] Therefore, for any given set of experiments (i.e. dose response curve, time curve, etc), a single batch is prepared and compared to 7PA2 alone within that batch.
IP/Western blots: 8 ml of 7PA2 CM were precleared with 40 μl of protein A agarose for 30 min. The beads were spun down, and […] of the polyclonal anti-Aβ antibody R1282 was added to the supernatant with an additional 40 μl of protein A agarose. These samples were nutated at 4° C. overnight. The beads were washed with a series of buffers 0.5 STEN (sodium chloride, tris, EDTA, NP-40), SDS STEN, STEN. 2× tricine sample buffer was added to the washed beads, which were then boiled, centrifuged, and the resulting supernatant loaded onto 10-20% tricine gels. The proteins were then transferred to nitrocellulose, and probed with the anti-Aβ antibody 6E10.

TgCRND8 mice [7] = experiment: Two-month treatment of TgCRND8 mice, cognition and pathology; type: in vivo, mouse; conditions: TgCRND8 mice treated for 2 months, ending at 7 months of age
Procedure: Scyllo-inositol was also administered to […]8 mice for 2 months, ending at 7 months of age.

rats = experiment: Alternating Lever Cyclic Ratio (ALCR) test after ICV Aβ oligomers; type: in vivo, rat
Procedure: The Aβ oligomers are naturally produced by cells transfected with genes that over-produce the amyloid precursor protein (APP). […] In addition, oligomeric Aβ is extracted from brain homogenate taken from transgenic mice (Tg2576) transfected with the Swedish APP mutation. […] These purified oligomeric forms of Aβ, at physiological concentrations relevant to those found in AD, are injected into the rat's lateral ventricle through an indwelling cannula while the animals are awake and moving. Two hours after injection the rats are tested under sensitive cognitive assay. The assay, the Alternating Lever Cyclic Ratio (ALCR) test, has proven to be much more sensitive than previously published methods for measuring drug effects on cognitive function. In this task, rats must learn a complex sequence of lever-pressing requirements in order to earn food reinforcement in a two-lever experimental chamber. Subjects must alternate between two levers by switching to the other lever after pressing the first lever enough to get food reward. The exact number of presses required for each food reward changes, first increasing from 2 responses per food pellet up to 56 presses per food pellet, then decreasing back to 2 responses per pellet. Intermediate values are based on the quadratic function, x^2−x. One cycle is an entire ascending and descending sequence of these lever press requirements (e.g., 2, 6, 12, 20, 30, 42, 56, 56, 42, 30, 20, 12, 6, and 2 presses per food reward). Six such full cycles are presented during each daily session. […] Oligomeric Aβ: […] These cells secrete oligomeric Aβ into the culture medium (CM) at physiological levels. Aβ oligomers was also derived from Tg2576 mouse brain and purified by size exclusion chromatography. Samples of oligomeric Aβ were characterized by Western Blot Analysis. Appropriate control compounds were produced and tested for each active Aβ oligomeric configuration. Rats: Forty (40) rats were trained under ALCR for approximately 3 months until their error rates are stable. Training sessions were conducted 5 days each week. Surgery: After training, all rats received a single 28 ga. cannula that was permanently affixed to the skull, and aimed at the lateral ventricle (divided equally between left and right). Rats were allowed 5 days to recover from surgery. Administration: In vivo administration of AZD103 to rats was performed by dissolving AZD103 into drinking water. Different concentrations were prepared, and the average daily water intake used to target specific average daily dose levels. These dose levels were therefore approximate. Testing: AZD 103 was tested against Aβ oligomers known to disrupt cognitive function. […] AZD 103 was incubated with the injectate medium containing Aβ oligomers prior to assessing it's affect on ALCR. […] Treatments were assessed in the following order: • 1. […] ICV AZD 103 alone • 3. […] Error Rate Analysis: All error rates under AZD 103 were compared to baseline error rates consisting of at least 3-4 non-treatment days prior to injections. This is a repeated measure within subject design that produces maximum power to detect changes in the error rates. Histology: Upon completion of the study, 20 rat brains were banked. The other 20 brains were evaluated histologically for inflammation, gliosis and cannula placement. […] Serial hematoxylin and eosin stained sections were used to evaluate for cannula placement. These same hemibrains were evaluated for inflammation (neutrophils/lymphocytes/macrophages), gliosis (microglial and astrocytic) and neuron loss using standard hematoxylin and eosin staining as well as specific markers for gliosis as needed.

7PA2 cells = experiment: Toxicity observations in 7PA2 cells and LTP controls; type: cell-based, Chinese Hamster; conditions: APPs expression, LTP in CHO-/AZD-103 conditions
Procedure: as §3

Aβ oligomers [8] = conditions: added pre-cond, positive control, previously shown; cited from earlier work
[9] = TgCRND8 mice, listed as Epi-cyclohexanehexol
[10] = TgCRND8 mice, 28 day course at 5 months of age, vs untreated
[11] = TgCRND8 mice, listed as Scyllo-cyclohexanehexol

T1 sequence (P05067 672-713): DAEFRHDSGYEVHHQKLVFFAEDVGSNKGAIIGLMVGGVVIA
T2 sequence (P05067 672-713 limits assumed): as the sequence (P05067 672-713) above

## OC1C(O)C(O)C(O)C(O)C1O (stereo not drawn) [epi-cyclohexanehexyl, 1,2,3,4,5/6-(epi-) cyclohexanehexyl, reference compound]
TgCRND8 mice [1]; TgCRND8 mice with pre-existing disease, 28 days
  impact on brain Aβ40 or Aβ42 levels, percent area of the brain covered with plaques, or plaque number: no significant impact
TgCRND8 mice [1]; [9]
  Mean Plaque Size: 346 ± 6 μm^2
  Total Plaque Area: 459706 ± 49966 μm^2
  Total Plaque Count: 1342 ± 114
Aβ42
  Plasma Aβ42 levels: 1079 ± 79 pg/mL
TgCRND8 mice [2]
  spatial learning performance compared to non-Tg littermates: significantly poorer than the performance of their non-Tg littermates; also recorded: remained impaired with respect to non-Tg littermates
  spatial learning performance compared to untreated TgCRND8 littermates: not significantly different from that of untreated TgCRND8 littermates

## O[C@H]1[C@H](O)[C@@H](O)[C@H](O)[C@@H](O)[C@H]1O [myo-cyclohexanehexyl, 1,2,3,5/4,6-(myo-) cyclohexanehexyl]
[3]
  benefit in pilot in vivo studies: no significant benefit
[4]
  toxicity in humans or animals: no toxicity
Aβ
  effectiveness in prior in vitro studies: only weakly effective

## OC1C(O)C(O)C(O)C(O)C1O (centres unmarked) [scyllo-cyclohexanehexyl, 1,3,5/2,4,6-(scyllo-) cyclohexanehexyl]
TgCRND8 mice [1]; [10]
  percent area of the brain covered by plaques, reduction: 14±0.5%
  plaque number reduction: 13±0.3%
  plaque size reduction: 16±0.4%
TgCRND8 mice [1]; TgCRND8 mice, one month of treatment, anti-Aβ antibody staining
  plaque burden in the hippocampus: lower plaque burden
TgCRND8 mice [1]; [11]
  Mean Plaque Size: 336 ± 6* μm^2
  Total Plaque Area: 420027 ± 14986* μm^2
  Total Plaque Count: 1260 ± 27
TgCRND8 mice [5]
  grooming or activity in the open field test: no effect on grooming or activity
  sensorimotor function, Rotarod: no difference
Aβ oligomers [6]; applied to 7PA2 CM (post-cond)
  Aβ dimer on Western blots: seemed unaffected
Aβ oligomers [6]; applied to 7PA2 CM (post-cond), 1.25 μM
  Aβ trimer on Western blots: reduced the detectability of the Aβ trimer
Aβ oligomers [6]; pre-cond and post-cond, measured absolutely and normalized to monomer
  Aβ dimer and trimer levels, dose response by Western blot: appeared to reduce dimer and trimer levels
Aβ42
  Plasma Aβ42 levels: 990 ± 73 pg/mL
TgCRND8 mice [2]; separate cohort of treated TgCRND8 mice vs non-Tg littermates
  probe trial, % time in target quadrant: not statistically different from non-Tg littermates
TgCRND8 mice [2]
  spatial learning performance compared to non-Tg littermates: indistinguishable from that of their non-Tg littermates
  spatial learning performance compared to untreated TgCRND8 littermates: significantly better behavioural performance compared to untreated TgCRND8 mice; also recorded: significantly better than untreated TgCRND8 littermates
TgCRND8 mice [7]
  effects on cognition and pathology: Sustained effects both on cognition and pathology were observed
rats; AZD103 administered without oligomers
  impact on ALCR performance without oligomers: no impact on performance
rats; ICV AZD103 alone, baseline = 100
  Switching % errors: 99%
rats; ICV Aβ oligomers incubated ex vivo with AZD103, baseline = 100
  Switching % errors: 95%
rats; ICV oligomers after 4 days PO 30 mg/kg/day in drinking water
  Switching % errors: 109%
rats; ICV oligomers after 4 days PO 100 mg/kg/day in drinking water
  Switching % errors: 100%
rats; ICV oligomers after 4 days PO 300 mg/kg/day in drinking water
  Switching % errors: 109%
7PA2 cells
  toxicity: No direct evidence of AZD-103 toxicity

## Oc1cccc(Nc2ccc(Nc3cccc(O)c3)nn2)c1 [RS0406]
Aβ oligomers [8]
  production of Aβ oligomers: reduces the production of oligomers
